This note sets out measurements from patent US12264134B2 (Merck Sharp & Dohme LLC, priority 2018, dated 2025).

Each structure is given as a SMILES string.

For the assay, the target named is IDO1 (Homo sapiens, UniProt P14902). In words: IDO1 Cellular Assay in HeLa Cells Stimulated with IFNγ. The conditions noted are these: read-out: HeLa Cell Potency, IC50. The format is cell-based.
Chain of IDO1 (P14902 whole entry): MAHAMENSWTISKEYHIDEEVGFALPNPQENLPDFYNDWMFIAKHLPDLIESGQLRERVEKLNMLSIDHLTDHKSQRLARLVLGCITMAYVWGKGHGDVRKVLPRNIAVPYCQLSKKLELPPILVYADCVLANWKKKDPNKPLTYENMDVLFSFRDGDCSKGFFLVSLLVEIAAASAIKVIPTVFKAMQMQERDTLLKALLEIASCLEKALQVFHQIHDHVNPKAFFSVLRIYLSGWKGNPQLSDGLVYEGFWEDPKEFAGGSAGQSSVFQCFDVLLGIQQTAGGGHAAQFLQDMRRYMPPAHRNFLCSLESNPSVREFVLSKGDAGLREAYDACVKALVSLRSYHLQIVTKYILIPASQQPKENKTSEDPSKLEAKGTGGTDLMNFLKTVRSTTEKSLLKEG
By IC50 is commonly meant the midpoint of a concentration-inhibition curve. Consider `CC(=O)NC1CCN(C(=O)c2nn(CC(=O)N3CCN(c4cccc(C)c4C)CC34CC4)c3c2[C@@H]2C[C@@H]2C3)CC1` [Example 356, N-(1-((3bR,4aR)-1-(2-(7-(2,3-dimethylphenyl)-4,7-diazaspiro[2.5]octan-4-yl)-2-oxoethyl)-3b,4,4a,5-tetrahydro-1H-cyclopropa[3,4]cyclopenta[1,2-c]pyrazole-3-carbonyl)piperidin-4-yl)acetamide], for which the IC50 came out at 0.73 nM. Take `Cc1cccc(N2CCN(C(=O)Cn3nc(C(=O)N4CCC(O)(CF)CC4)c4c3C[C@H]3C[C@@H]43)C3(CC3)C2)c1C` [Example 358]: the IC50 worked out at 1.59 nM.

For the molecule `Cc1cccc(N2CCN(C(=O)Cn3nc(C(=O)N4CC[C@H](O)[C@@H](F)C4)c4c3C[C@H]3C[C@@H]43)C3(CC3)C2)c1C` [Example 359], the IC50 came out at 1.93 nM. In the case of `Cc1cccc(N2CCN(C(=O)Cn3nc(C(=O)N4CCO[C@H](CO)C4)c4c3C[C@H]3C[C@@H]43)C3(CC3)C2)c1C` [Example 363, 1-(7-(2,3-dimethylphenyl)-4,7-diazaspiro[2.5]octan-4-yl)-2-((3bR,4aR)-3-((S)-2-(hydroxymethyl)morpholine-4-carbonyl)-3b,4,4a,5-tetrahydro-1H-cyclopropa[3,4]cyclopenta[1,2-c]pyrazol-1-yl)ethanone], the half-inhibitory concentration (IC50) was 2.52 nM. As to `Cc1cccc(N2CCN(C(=O)Cn3nc(C(=O)N4CC[C@H](O)[C@H](F)C4)c4c3C[C@H]3C[C@@H]43)C3(CC3)C2)c1C` [Example 364, 1-(7-(2,3-dimethylphenyl)-4,7-diazaspiro[2.5]octan-4-yl)-2-((3bR,4aR)-3-((3R,4S)-3-fluoro-4-hydroxypiperidine-1-carbonyl)-3b,4,4a,5-tetrahydro-1H-cyclopropa[3,4]cyclopenta[1,2-c]pyrazol-1-yl)ethanone], the IC50 came to 1.47 nM. Take `Cc1cccc(N2CCN(C(=O)Cn3nc(C(=O)N4CC[C@@H](O)[C@@H](F)C4)c4c3C[C@H]3C[C@@H]43)C3(CC3)C2)c1C` [Example 365, 1-(7-(2,3-dimethylphenyl)-4,7-diazapspiro[2.5]octan-4-yl)-2-((3bR,4aR)-3-((3S,4R)-3-fluoro-4-hydroxypiperidine-1-carbonyl)-3b,4,4a,5-tetrahydro-1H-cyclopropa[3,4]cyclopenta[1,2-c]pyrazol-1-yl)ethanone]: the IC50 was 1.19 nM. In the case of `CC(=O)NC1CCN(C(=O)c2nn(CC(=O)N3CCN(c4cccc(Cl)c4C)CC3)c3c2CC(F)CC3)CC1` (stereo not shown) [Example 367, N-(1-(1-(2-(4-(3-chloro-2-methylphenyl)piperazin-1-yl)-2-oxoethyl)-5-fluoro-4,5,6,7-tetrahydro-1H-indazole-3-carbonyl)piperidin-4-yl)acetamide], the IC50 was found to be 2.89 nM. For the molecule `Cc1c(Cl)cccc1N1CCN(C(=O)Cn2nc(C(=O)N3CC[C@H](O)[C@H](F)C3)c3c2CCC(F)C3)CC1` (stereo partly drawn) [Example 369, 1-(4-(3-chloro-2-methylphenyl)piperazin-1-yl)-2-(5-fluoro-3-((3R,4S)-3-fluoro-4-hydroxypiperidine-1-carbonyl)-4,5,6,7-tetrahydro-1H-indazol-1-yl)ethan-1-one], the IC50 came to 6.62 nM. As to `Cc1c(Cl)cccc1N1CCN(C(=O)Cn2nc(C(=O)N3CC[C@@H](O)[C@@H](F)C3)c3c2CCC(F)C3)CC1` (stereo partly drawn) [Example 370, 1-(4-(3-chloro-2-methylphenyl)piperazin-1-yl)-2-(5-fluoro-3-((3S,4R)-3-fluoro-4-hydroxypiperidine-1-carbonyl)-4,5,6,7-tetrahydro-1H-indazol-1-yl)ethan-1-one], the IC50 turned out to be 9.52 nM. Next, `Cc1c(Cl)cccc1N1CCN(C(=O)Cn2nc(C(=O)N3CCN(C(=O)CO)CC3)c3c2CCC(F)C3)CC1` (stereo not shown) [Example 371, 1-(4-(3-chloro-2-methylphenyl)piperazin-1-yl)-2-(5-fluoro-3-(4-(2-hydroxyacetyl)piperazine-1-carbonyl)-4,5,6,7-tetrahydro-1H-indazol-1-yl)ethan-1-one]: 15.7 nM; `Cc1c(Cl)cccc1N1CCN(C(=O)Cn2nc(C(=O)N3CCC(O)CC3)c3c2CCC(F)C3)CC1` (stereo not shown) [Example 372, 1-(4-(3-chloro-2-methylphenyl)piperazin-1-yl)-2-(5-fluoro-3-(4-hydroxypiperidine-1-carbonyl)-4,5,6,7-tetrahydro-1H-indazol-1-yl)ethan-1-one]: 2.32 nM; `Cc1c(Cl)cccc1N1CCN(C(=O)Cn2nc(C(=O)N3CC[C@H](O)[C@H](F)C3)c3c2CCC(F)C3)CC1` (stereo partly drawn) [Example 374, 1-(4-(3-chloro-2-methylphenyl)piperazin-1-yl)-2-(5-fluoro-3-((3R,4S)-3-fluoro-4-hydroxypiperidine-1-carbonyl)-4,5,6,7-tetrahydro-1H-indazol-1-yl)ethan-1-one]: 5.17 nM.

As to `Cc1c(Cl)cccc1N1CCN(C(=O)Cn2nc(C(=O)N3CC[C@@H](O)[C@@H](F)C3)c3c2CCC(F)C3)CC1` (stereo partly drawn) [Example 375, 1-(4-(3-chloro-2-methylphenyl)piperazin-1-yl)-2-(5-fluoro-3-((3S,4R)-3-fluoro-4-hydroxypiperidine-1-carbonyl)-4,5,6,7-tetrahydro-1H-indazol-1-yl)ethan-1-one], the IC50 came out at 9.03 nM. As to `Cc1c(Cl)cccc1N1CCN(C(=O)Cn2nc(C(=O)N3CCN(C(=O)CO)CC3)c3c2CCC(F)C3)CC1` (stereo not shown) [Example 376, 1-(4-(3-chloro-2-methylphenyl)piperazin-1-yl)-2-(5-fluoro-3-(4-(2-hydroxyacetyl)piperazine-1-carbonyl)-4,5,6,7-tetrahydro-1H-indazol-1-yl)ethan-1-one], the IC50 was found to be 14 nM. Turning to `CC(=O)NC1CCN(C(=O)c2nn(CC(=O)N3CCN(c4cccc(Cl)c4C)CC3)c3c2CC(F)CC3)CC1` (stereo not shown) [Example 377, N-(1-(1-(2-(4-(3-chloro-2-methylphenyl)piperazin-1-yl)-2-oxoethyl)-5-fluoro-4,5,6,7-tetrahydro-1H-indazol-3-carbonyl)piperidin-4-yl)acetamide], the 50% inhibitory concentration (IC50) amounted to 3.15 nM. Next, `Cc1c(Cl)cccc1N1CCN(C(=O)Cn2nc(C(=O)N3CC[C@@H](O)[C@@H](F)C3)c3c2CCC(F)(F)C3)CC1` [Example 378, 1-(4-(3-chloro-2-methylphenyl)piperazin-1-yl)-2-(5,5-difluoro-3-((3 S,4R)-3-fluoro-4-hydroxypiperidine-1-carbonyl)-4,5,6,7-tetrahydro-1H-indazol-1-yl)ethan-1-one]: 9.25 nM.

As to `Cc1c(Cl)cccc1N1CCN(C(=O)Cn2nc(C(=O)N3CCN(C)C(C)C3)c3c2CCC(F)(F)C3)CC1` (stereo not shown) [Example 382], the half-inhibitory concentration (IC50) turned out to be 11.6 nM.

As to `Cc1c(Cl)cccc1N1CCN(C(=O)Cn2nc(C(=O)N3CCC(O)(CF)CC3)c3c2CCC(F)(F)C3)CC1` [Example 383, 1-(4-(3-chloro-2-methylphenyl)piperazin-1-yl)-2-(5,5-difluoro-3-(4-(fluoromethyl)-4-hydroxypiperidine-1-carbonyl)-4,5,6,7-tetrahydro-1H-indazol-1-yl)ethan-1-one], the IC50 is 4.49 nM. For `Cc1cccc(N2CCN(C(=O)Cn3nc(C(=O)N4CCC(O)CC4)c4c3C[C@H]3C[C@@H]43)C(C(F)F)C2)c1C` (stereo partly drawn) [Example 385, 1-(2-(difluoromethyl)-4-(2,3-dimethylphenyl)piperazin-1-yl)-2-((3bR,4aR)-3-(4-hydroxypiperidine-1-carbonyl)-3b,4,4a,5-tetrahydro-1H-cyclopropa[3,4]cyclopenta[1,2-c]pyrazol-1-yl)ethanone], the concentration for half-maximal inhibition (IC50) was 34.9 nM.
